The target of assay [1] is human GABAA α5β2γ1 receptor (Homo sapiens (Human), UniProt P31644+Q8N1C3). As to the kind of experiment: Radioligand binding assay for γ1-containing GABAA subtypes, [3H]RO7239181 competition (α5β2γ1).
The target in assay [2] is human GABAA α2β2γ1 receptor (Homo sapiens (Human), UniProt P47869+Q8N1C3). The experiment in a line: Radioligand binding assay for γ1-containing GABAA subtypes, [3H]RO7239181 competition (α2β2γ1).
Assay [3] concerns the target human GABAA α1β3γ2 receptor (Homo sapiens (Human), UniProt P14867+P18507). As to the kind of experiment: Radioligand binding assay for γ2-containing GABAA subtypes, [3H]Flumazenil competition (α1β3γ2). The following applies: for γ2/γ1 Selectivity Ratio: Ki α1β3γ2 (nM)/Ki α2β2γ1 (nM); for LogSel: Log[Ki α1β3γ2 (nM)/Ki α2β2γ1 (nM)].
For assay [4], the target named is α2β2γ1 GABAA receptor subtype (Homo sapiens (Human), UniProt P47869+Q8N1C3). The experiment in a line: Two-electrode voltage clamp electrophysiology in Xenopus oocytes expressing GABAA receptors (modulation of GABA EC20 current). It counts as cell-based. The following applies: for Efficacy (GABA)%: % modulation of GABA EC20 = 100*(Fold increase-1), α2β2γ1 oocytes, compound at approx. 30-fold Ki; for Fold increase h-GABA-A α2β2γ1 oocyte @ 30-fold Ki: Xenopus oocytes expressing α2β2γ1, compound at approx. 30-fold its Ki α2β2γ1, GABA EC20 current. In short, it runs like this: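 Two-electrode voltage clamp at −80 mV, room temperature, 3-5 days after mRNA injection into oocytes. GABA applied at EC20 for 1.5 min, twice, with compound during second application; at least 3 oocytes per concentration. Efficacy = extremum of point-by-point current ratio, expressed as 100×(fold increase−1).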

[5] abbreviates: Ki h-GABAA α2β2γ1, [3H]RO7239181 competition binding, human GABAA α2β2γ1.
Setting [6] is: Ki h-GABAA α2β2γ1, displacement of [3H]RO7239181, membranes of HEK293F cells expressing human receptors, means of two determinations.

SMILES strings stand for the structures.

Take `C[C@@H]1N=C(c2c(F)cccc2F)c2c(ccc(C(F)(F)F)c2Cl)-n2nc(NC(=O)N3CC(F)C3)nc21` [Example 128, N-[(4S)-7-chloro-6-(2,6-difluorophenyl)-4-methyl-8-(trifluoromethyl)-4H-[1,2,4]triazolo[1,5-a][1,4]benzodiazepin-2-yl]-3-fluoro-azetidine-1-carboxamide]: the Ki (commonly the dissociation constant of the complex between target and ligand, obtained from inhibition or displacement) in assay [1] is 4.2 nM; in assay [2] (setting [5]) it was 34.8 nM; in assay [2] (setting [6]) it was 34.9 nM; in assay [3] it was 3880 nM. For the same compound, in assay [3], the “γ2/γ1 Selectivity Ratio” value worked out at 111.4. The LogSel in assay [3] is recorded as 2.05. The “Efficacy (GABA)%” value in assay [4] is on record as 98%. Besides, the “Fold increase h-GABA-A α2β2γ1 oocyte @ 30-fold Ki” value in assay [4] is 1.98.

As to `CC1CN(C(=O)c2nc3n(n2)-c2ccc(C(F)(F)F)c(Cl)c2C(c2ncccc2F)=N[C@H]3C)C1` [Example 135, [(4S)-7-chloro-6-(3-fluoro-2-pyridyl)-4-methyl-8-(trifluoromethyl)-4H-[1,2,4]triazolo[1,5-a][1,4]benzodiazepin-2-yl]-(3-methylazetidin-1-yl)methanone], the affinity in assay [1] corresponds to a Ki of 9.35 nM. In assay [2] (setting [5]), this compound had an inhibitory constant (Ki) of 50.6 nM. In addition, the Ki in assay [2] (setting [6]) amounted to 50.6 nM. Moreover, in assay [3], the Ki was above 30000 nM, the “γ2/γ1 Selectivity Ratio” value is 592.7 and the LogSel was determined as 2.77. In assay [4], the “Efficacy (GABA)%” value was determined as 118% and the “Fold increase h-GABA-A α2β2γ1 oocyte @ 30-fold Ki” value is given as 2.18.

As for `Cc1cn2c(n1)[C@H](C)N=C(c1c(F)cccc1F)c1c-2ccc(C(F)(F)F)c1Cl` [Example 148, (4S)-7-chloro-6-(2,6-difluorophenyl)-2,4-dimethyl-8-(trifluoromethyl)-4H-imidazo[1,2-a][1,4]benzodiazepine], the Ki in assay [1] was determined as 2.1 nM; in assay [2] (setting [5]) it was 10.2 nM; in assay [2] (setting [6]) it was 10.2 nM; in assay [3] it was 866 nM. Besides, in assay [3], the “γ2/γ1 Selectivity Ratio” value was found to be 84.7. The compound further had a LogSel in assay [3] of 1.93. For the same compound, the “Efficacy (GABA)%” value in assay [4] is reported as 73%. Also, in assay [4], the “Fold increase h-GABA-A α2β2γ1 oocyte @ 30-fold Ki” value came out at 1.73.

Consider `CCOC1CN(C(=O)c2nc3n(n2)-c2ccc(Cl)c(Cl)c2C(c2ncccc2F)=N[C@H]3C)C1` [Example 86, (3-ethoxyazetidin-1-yl)-[(4S)-7,8-dichloro-6-(3-fluoro-2-pyridyl)-4-methyl-4H-[1,2,4]triazolo[1,5-a][1,4]benzodiazepin-2-yl]methanone], for which the Ki in assay [1] came out at 6.13 nM; in assay [2] (setting [5]) it was 37 nM; in assay [2] (setting [6]) it was 37 nM; in assay [3], 2050 nM. The “γ2/γ1 Selectivity Ratio” value in assay [3] is listed as 55.4. This compound also had a LogSel in assay [3] of 1.74. Also, the “Efficacy (GABA)%” value in assay [4] was determined as 97%. Further, the “Fold increase h-GABA-A α2β2γ1 oocyte @ 30-fold Ki” value in assay [4] is given as 1.97.

In the case of `CO[C@@H]1CCN(C(=O)c2nc3n(n2)-c2ccc(Cl)c(Cl)c2C(c2c(F)cccc2F)=N[C@H]3C)C1` [Example 46, [(4S)-7,8-dichloro-6-(2,6-difluorophenyl)-4-methyl-4H-[1,2,4]triazolo[1,5-a][1,4]benzodiazepin-2-yl]-[(3R)-3-methoxypyrrolidin-1-yl]methanone], the affinity in assay [1] corresponds to a Ki of 2.14 nM. The compound further registered a Ki in assay [2] (setting [5]) of 5.9 nM. In assay [2] (setting [6]), the Ki came out at 5.91 nM. Besides, in assay [3], the affinity, expressed as Ki, was 867 nM; the “γ2/γ1 Selectivity Ratio” value worked out at 146.6; the LogSel stood at 2.17. In assay [4], the “Efficacy (GABA)%” value was 73% and the “Fold increase h-GABA-A α2β2γ1 oocyte @ 30-fold Ki” value is on record as 1.73.

As to `C[C@@H]1N=C(c2c(F)cccc2F)c2c(ccc(Cl)c2Cl)-n2nc(C(=O)N3CC(C(F)F)C3)nc21` [Example 75, [3-(difluoromethyl)azetidin-1-yl]-[(4S)-7,8-dichloro-6-(2,6-difluorophenyl)-4-methyl-4H-[1,2,4]triazolo[1,5-a][1,4]benzodiazepin-2-yl]methanone], the Ki in assay [1] worked out at 1.14 nM; in assay [2] (setting [5]), 13.8 nM; in assay [2] (setting [6]), 13.8 nM; in assay [3] it was 737 nM. Further, the “γ2/γ1 Selectivity Ratio” value in assay [3] was 53.4. This compound returned a LogSel in assay [3] of 1.73. In assay [4], the “Efficacy (GABA)%” value is 41%. For the same compound, the “Fold increase h-GABA-A α2β2γ1 oocyte @ 30-fold Ki” value in assay [4] is reported as 1.41.

As for `C[C@@H]1N=C(c2c(F)cccc2F)c2c(ccc(Cl)c2Cl)-n2nc(N3CCS(=O)(=O)CC3)nc21` [Example 52, 4-[(4S)-7,8-dichloro-6-(2,6-difluorophenyl)-4-methyl-4H-[1,2,4]triazolo[1,5-a][1,4]benzodiazepin-2-yl]-1,4-thiazinane 1,1-dioxide], the Ki in assay [1] was 1.26 nM. In assay [2] (setting [5]), this compound came in with a Ki of 12.4 nM. In assay [2] (setting [6]), this compound showed a Ki of 12.4 nM. In addition, in assay [3], the Ki was determined as 578 nM, the “γ2/γ1 Selectivity Ratio” value worked out at 46.6 and the LogSel was 1.67. Also, in assay [4], the “Efficacy (GABA)%” value is on record as 41% and the “Fold increase h-GABA-A α2β2γ1 oocyte @ 30-fold Ki” value is listed as 1.41.

For `OCc1cn2c(n1)CN=C(c1c(F)cccc1F)c1c-2ccc(Br)c1Cl` [Example 4, (8-bromo-7-chloro-6-(2,6-difluorophenyl)-4H-benzo[f]imidazo[1,2-a][1,4]diazepin-2-yl)methanol], the Ki in assay [1] was 1.14 nM. For the same compound, in assay [2] (setting [5]), the affinity corresponds to a Ki of 8.8 nM. For the same compound, the affinity in assay [2] (setting [6]) corresponds to a Ki of 8.8 nM. For the same compound, in assay [3], the affinity, expressed as Ki, was 216 nM; the “γ2/γ1 Selectivity Ratio” value worked out at 24.4; the LogSel came to 1.39. In assay [4], the “Efficacy (GABA)%” value is reported as 105% and the “Fold increase h-GABA-A α2β2γ1 oocyte @ 30-fold Ki” value worked out at 2.05.

For `Cc1cn2c(n1)[C@H](C)N=C(c1ncccc1F)c1c-2ccc(C(F)(F)F)c1Cl` [Example 139, (4S)-7-chloro-6-(3-fluoro-2-pyridyl)-2,4-dimethyl-8-(trifluoromethyl)-4H-imidazo[1,2-a][1,4]benzodiazepine], the affinity in assay [1], expressed as Ki, was 5.54 nM. The same compound displayed a Ki in assay [2] (setting [5]) of 30.8 nM. In addition, in assay [2] (setting [6]), the affinity, expressed as Ki, was 30.8 nM. Besides, in assay [3], the Ki is 3060 nM, the “γ2/γ1 Selectivity Ratio” value is on record as 99.6 and the LogSel is 2.00. For the same compound, in assay [4], the “Efficacy (GABA)%” value is 149% and the “Fold increase h-GABA-A α2β2γ1 oocyte @ 30-fold Ki” value came out at 2.49.

On to `COCCNC(=O)c1nc2n(n1)-c1ccc(Cl)c(Cl)c1C(c1c(F)cccc1F)=N[C@H]2C` [Example 28, (4S)-7,8-dichloro-6-(2,6-difluorophenyl)-N-(2-methoxyethyl)-4-methyl-4H-[1,2,4]triazolo[1,5-a][1,4]benzodiazepine-2-carboxamide], for which the Ki in assay [1] was 1.08 nM; in assay [2] (setting [5]), 3.9 nM; in assay [2] (setting [6]) it was 3.92 nM; in assay [3] it was 578 nM. Also, the “γ2/γ1 Selectivity Ratio” value in assay [3] is recorded as 147.4. The compound further came in with a LogSel in assay [3] of 2.17. In addition, in assay [4], the “Efficacy (GABA)%” value was 56%. Further, the “Fold increase h-GABA-A α2β2γ1 oocyte @ 30-fold Ki” value in assay [4] came to 1.56.

The compound `C[C@@H]1N=C(c2ncccc2F)c2c(ccc(Cl)c2Cl)-n2nc(C(=O)N3CC4(CCOCC4)C3)nc21` [Example 95, 7-oxa-2-azaspiro[3.5]nonan-2-yl-[(4S)-7,8-dichloro-6-(3-fluoro-2-pyridyl)-4-methyl-4H-[1,2,4]triazolo[1,5-a][1,4]benzodiazepin-2-yl]methanone] returned a Ki in assay [1] of 20.2 nM. Also, affinity in assay [2] (setting [5]) was put at a Ki of 47.6 nM. This compound also showed an inhibition constant Ki in assay [2] (setting [6]) of 47.6 nM. Further, in assay [3], the Ki came to 9440 nM, the “γ2/γ1 Selectivity Ratio” value was 198.4 and the LogSel worked out at 2.30. Also, in assay [4], the “Efficacy (GABA)%” value was 126% and the “Fold increase h-GABA-A α2β2γ1 oocyte @ 30-fold Ki” value is 2.26.

The record behind these values is patent US12365687B2 (Hoffmann-La Roche Inc., priority 2021, dated 2025).
